Test results reported in BindingDB's records for doi:10.7270/Q2VX0F3D (Burnham Center For Chemical Genomics, 2012).

Target: T1, Corticotropin-releasing factor-binding protein (Homo sapiens, UniProt P24387)
T1 sequence (P24387 whole entry): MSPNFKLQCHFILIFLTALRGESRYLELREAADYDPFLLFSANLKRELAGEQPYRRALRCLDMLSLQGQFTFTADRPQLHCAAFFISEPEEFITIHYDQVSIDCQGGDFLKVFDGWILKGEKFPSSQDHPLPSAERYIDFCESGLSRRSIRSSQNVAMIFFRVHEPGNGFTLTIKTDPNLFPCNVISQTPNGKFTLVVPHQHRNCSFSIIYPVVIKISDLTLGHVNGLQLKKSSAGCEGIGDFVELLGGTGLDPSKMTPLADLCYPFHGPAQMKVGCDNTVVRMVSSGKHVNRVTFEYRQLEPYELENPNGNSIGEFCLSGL
Test: activators of CRF receptor 2 with binding protein – uHTS hits, confirmation (AID 602473)

O=NCc1ccc(Oc2ccc(F)cc2)c([N+](=O)[O-])c1 [N-[[4-(4-fluorophenoxy)-3-nitrophenyl]methylidene]hydroxylamine]
EC50: > 53 µM

COC(=O)C1=Nc2nnnn2C(c2ccc(O)c(OC)c2)C1C(=O)c1ccccc1 (configuration not stated) [SMR000020111]
EC50: > 53 µM

COc1ccc(C2=Nc3nnnn3C(c3ccc(C)cc3)C2)cc1 (configuration not stated) [SMR000035317]
EC50: > 53 µM

CCc1ccccc1-n1c(O)c2c(c1O)CC(C)=C(C)C2 [SMR000104383]
EC50: > 53 µM

CC(=CN=Nc1nc(C)cc(C)n1)Cc1ccc(C(C)C)cc1 [SMR000146220]
EC50: > 53 µM

Cc1[nH]c2ccccc2c1/C=C1\N=C(c2ccc(C(F)(F)F)cc2)OC1=O [SMR000152363]
EC50: 10.2 µM

Cc1ccc(-n2[nH]c(C)c(CN=Nc3ccc([N+](=O)[O-])cc3[N+](=O)[O-])c2=O)cc1 [SMR000171521]
EC50: > 53 µM

Cc1ccc(S(=O)(=O)N(CC(=O)NNC2=c3ccccc3=NC2=O)c2ccc(C)c(C)c2)cc1 [SMR000207608]
EC50: > 53 µM

Cc1ccc(CSC(=Nc2ccc(F)cc2)C(C#N)C#N)cc1 [SMR000217751]
EC50: > 53 µM

Cc1nn(-c2ccccc2)c(N2CCCC2)c1CN=Nc1ccc(S(N)(=O)=O)cc1[N+](=O)[O-] [SMR000243538]
EC50: > 53 µM

COc1ccc(C(=O)C2C(=O)C(=O)N(CCN(C)C)C2c2cccnc2)cc1C (configuration not stated) [SMR000287983]
EC50: > 53 µM

COc1ccc(C2c3c(n(C)c(=O)n(C)c3=O)N=C3CC(C)(C)CC(=O)C32)cc1OC (configuration not stated) [SMR000291470]
EC50: > 53 µM

O=C1C=Cc2cc(=C3C=CCC=N3)c(=O)oc2=C1CN1CCN(CCO)CC1 [SMR000298878]
EC50: 6.05 µM

O=c1nncc(N=NC=CCc2ccccc2)[nH]1 [SMR000413415]
EC50: > 53 µM

Nc1ccccc1Sc1cc(O)n(-c2ccc3c(c2)OCO3)c1O [SMR000459840]
EC50: > 53 µM

CC1=NC(=O)NC(c2cccc3ccccc23)C1C(=O)OC(C)(C)C (configuration not stated) [SMR000543036]
EC50: > 53 µM

COc1ccc(Cn2cc(O)n(-c3cccc(Cl)c3)c2=S)cc1OC [SMR000564410]
EC50: > 53 µM

Cc1cc(C)cc(NC(=O)c2ccc(-n3c(O)c4c(c3O)CCCC4)cc2)c1 [SMR000664971]
EC50: > 53 µM

COc1cccc(C2C(C(=O)c3ccc(C)o3)C(=O)C(=O)N2CCN2CCOCC2)c1OC (configuration not stated) [SMR000665042]
EC50: > 53 µM

Nc1ccc2c(c1)C(N=O)c1ccccc1-2 (configuration not stated) [SMR001570622]
EC50: > 53 µM

CN(C)c1ccc(C(N=O)c2ccccc2)cc1 (configuration not stated) [[4-(dimethylamino)phenyl]-phenylmethanone oxime]
EC50: > 53 µM

N#CC(C(=O)COC(=O)c1ccccc1O)c1nc2ccccc2s1 (configuration not stated) [[(3Z)-3-(3H-1,3-benzothiazol-2-ylidene)-3-cyano-2-oxidanylidene-propyl] 2-oxidanylbenzoate]
EC50: > 53 µM

O=NC(N1CCOCC1)P(=O)(N1CCOCC1)N1CCOCC1 (configuration not stated) [bis(4-morpholinyl)phosphoryl-(4-morpholinyl)methanone oxime]
EC50: > 53 µM

CCOC(=O)C1CCCN(c2cc(O)n(-c3ccccc3)c2O)C1 (configuration not stated) [ethyl 1-(2,5-dioxo-1-phenylpyrrolidin-3-yl)piperidine-3-carboxylate]
EC50: > 53 µM

CCOC(=O)c1c(NC=C2C(=O)NC(=S)NC2=O)sc2c1CCC2 [ethyl 2-[(E)-(4,6-dioxo-2-sulfanylidene-1,3-diazinan-5-yl)methylideneamino]-5,6-dihydro-4H-cyclopenta[b]thiophene-3-carboxylate]
EC50: > 53 µM

COC(=O)C1=C(C)NC(=O)C1=CNc1ccc(C(C)C)cc1 [methyl (4E)-2-methyl-5-oxidanylidene-4-[[(4-propan-2-ylphenyl)amino]methylidene]-1H-pyrrole-3-carboxylate]
EC50: > 53 µM

COC(=O)Cc1sc(=O)[nH]c1Nc1ccc(OC)cc1 [methyl {4-[(4-methoxyphenyl)imino]-2-oxo-1,3-thiazolidin-5-yl}acetate]
EC50: > 53 µM
